Test results from patent publication US20110124703A1, “MOLECULES COMPRISING A BIS(HETEROARYL)MALEIMIDE BACKBONE, AND USE THEREOF IN THE INHIBITION OF DDE/DDD ENZYMES” (priority 2008, published 2011).
Read-outs that look alike come from different tables or passages of the source.

Legend:
[1] = biological target: T1, MOS1 transposase (MBP-MOS1) (Drosophila mauritiana, UniProt Q7JQ07); experiment: In vitro excision test; type: biochemical
T1 construct: made in house
Procedure: These tests were carried out under the same conditions as for the in vitro transposition tests, with the exception of the fact that the incubation was carried out at 37° C. instead of 30° C. In order to determine the IC50, a range of concentrations of the compound from 1000 to 0.8 μM was used as indicated in the text. After incubation, the reaction was interrupted by adding 2 μl of 10× loading buffer and the products were loaded directly onto a 0.8% TAE 1×-agarose gel containing ethidium bromide. The quantity of backbone liberated was evaluated using the GeneSnap system (SynGene). The percentage inhibition of excision was plotted as a function of the concentration of the compound. The experimental data were adjusted on a sigmoid dose-response curve using Prism software. Each experiment was repeated at least two times.
For a better characterization of the inhibiting activity of these ten compounds and their action mechanisms on the transposition of Mos1, the capacity of the chemical compounds to inhibit excision of the transposon was tested in vitro, using the pBC-3T3 transposon as a donor plasmid. MOS1 triggers excision of the transposon from a donor plasmid, generating two linear DNA fragments, the transposon (1.2 kb) and the plasmid backbone (3.4 kb). After excision, the transposon can be re-inserted in a target. The excision activity of the drug was measured by quantifying the plasmid backbone as it is a final product in the reaction. In the absence of a drug, the transposase released the transposon from the donor plasmid.
In order to determine the concentration of drug necessary to inhibit 50% of the reaction (IC50), the inhibition percentages measured from two independent experiments were plotted as a function of the concentration of drug (FIG. 3b). Similar experiments were carried out with the nine other chemical compounds and the corresponding IC50 values are shown in Table III.

[2] = biological target: T1, MOS1 transposase (MBP-MOS1); experiment: In vitro transposition test; type: biochemical; conditions: 80 μM compound; for Transposition frequencies: mean of at least five experiments; for Inhibition factors: ratio of transposition frequency with DMSO to that with compound
Procedure: The in vitro transposition reactions were carried out using pBC-3T3 both as the donor DNA and as the target, as was carried out previously for transposition tests in bacteria (16). The transposition reaction mixtures contained 10 mM of Tris-HCl (pH 9), 50 mM of NaCl, 0.5 mM of dithiothreitol, 20 mM of MgCl2, 0.5 mM of EDTA, 100 ng of BSA, 80 nM of MBP-MOS1 and 600 ng of supercoiled pBC-3T3 in a volume of 20 μl. Inhibitors (final concentration 80 μM) or DMSO were added to the reaction mixtures before the transposase. The reactions were carried out freely for 30 min at 30° C. then 10 μl of the stop solution (0.4% SDS, 0.4 μg/μl proteinase K) were added and the reaction mixtures were incubated at 37° C. for an additional 30 min, then at 65° C. for 10 min. The products were extracted with phenol-chloroform and precipitated in ethanol with 1 μg of yeast tRNA using conventional techniques. 10% of the reaction mixture was co-transformed with 0.01 ng of pBS-SK(−), used as a positive control for transformation (Stratagene), in 45 μl of electrocompetent Escherichia coli JM109 cells (2 mm cell, 1.5 kV in a MicroPulser™ from BioRad). The bacteria were cultivated at 37° C. for 1 hour in SOC medium. Appropriate dilutions of each reaction were spread on LB-ampicillin gelose (100 μg/ml) to evaluate the transformation efficacy and on LB-tetracyclin gelose (12.5 μg/ml) and LB-chloramphenicol gelose (80 μg/ml) in order to evaluate the frequency of transposition. The frequency of transposition is the number of Tet® colonies divided by the number of Chloram® colonies. The transformation efficacy was monitored from the number of Amp® colonies. The effect of the various compounds was expressed by calculating an inhibition factor (IF) such that IF=the frequency of transposition of the control (in DMSO) divided by the frequency of transposition obtained with the compound.
The transposition test was carried out using a purified MOS1 protein fused with the MBP and the pBC-3T3 plasmid carrying a pseudo-Mos1 transposon. In this test, pBC-3T3 was used as the pseudo-Mos1 donor, or as the target for integration of the transposon (16). […] The concentration of drugs used for the initial screening was 80 μM.

MOS1-ITR complexes = biological target: T2, MOS1-ITR complexes (Drosophila mauritiana, UniProt Q7JQ07); experiment: Electrophoretic mobility shift test (EMSA), assembly of MOS1-ITR complexes; type: binding; set-up: key to Assembly of complexes: +: complexes observed; −: absence of complexes; +/: traces of SEC1; conditions: for IC50: MOS1-ITR bond
T2 construct: made in house
Procedure: The ITR30 was prepared and labeled as described above (8) with certain minor modifications: after labelling, the DNA was purified further on a native polyacrylamide gel. The binding reactions were carried out in 50 mM of NaCl, 0.5 mM of DTT, 10 mM of Tris (pH 9), 5% of glycerol and 100 ng of BSA. Each 20 μl reaction contained 0.2 pmol of ITR30 labelled with ^32P, […] of purified MBP-MOS1, 5 mM of EDTA, and 1 μl of the test compound (final concentration 400 μM) or DMSO. The mixtures were incubated at 30° C. for two hours. The complexes were separated using discontinuous native polyacrylamide gels with 4% to 6% of TBE 0.25× (acrylamide/bisacrylamide 30:0.93) containing 5% of glycerol. The gels were subjected to 200 V for 3 hours then autoradiographed.
The capacity of the ten molecules to inhibit the appearance of complexes formed in vitro between MOS1 and ITR 3′ (8) was tested using the gel mobility shift technique (EMSA). MOS1-ITR complexes were formed with a radiolabelled ITR 3′ (ITR30) in the presence of a 400 μM concentration of molecule. This concentration was at least 2.5 times higher than the highest IC50 value measured for the ten compounds.

HIV-1 integrase = biological target: T3, HIV-1 integrase (Human immunodeficiency virus type 1 group M subtype B, UniProt P04585); experiment: 3′ maturation and HIV-1 strand transfer tests; type: biochemical
T3 construct: made in house
Procedure: HIV-1 integrase was purified as described in (32). 200 nM of HIV-1 integrase was incubated in the presence of 6.25 nM of radiolabelled oligonucleotide duplex imitating the end of the LTR U5 in a buffer containing 20 mM of HEPES (pH 7.5), 10 mM of NaCl, 4 mM of DTT, 7.5 mM of MgCl2, 10% of DMSO and various concentrations of drugs. The reaction was carried out for 2 hours at 37° C. and the products were separated on an 18% acrylamide urea gel. The gel was scanned using a phosphorimager and analyzed using Image Quant (Molecular Dynamics) software. Each experiment was carried out in duplicate.
To verify whether the novel group of inhibitors (compounds 1 to 4) is also susceptible of blocking HIV-1 integrase, the activity of compound 4 was tested against the 3′ maturation and strand transfer activities of HIV-1 integrase. The percentage inhibition measured in the two independent experiments were traced as a function of the concentration of compound 4 (FIG. 10). […] It was also an excellent inhibitor of HIV-1 integrase. […] In consequence, MOS1 can be considered as a novel substitute for the identification of inhibitors of HIV-1 integrase.

T1 sequence (Q7JQ07 whole entry): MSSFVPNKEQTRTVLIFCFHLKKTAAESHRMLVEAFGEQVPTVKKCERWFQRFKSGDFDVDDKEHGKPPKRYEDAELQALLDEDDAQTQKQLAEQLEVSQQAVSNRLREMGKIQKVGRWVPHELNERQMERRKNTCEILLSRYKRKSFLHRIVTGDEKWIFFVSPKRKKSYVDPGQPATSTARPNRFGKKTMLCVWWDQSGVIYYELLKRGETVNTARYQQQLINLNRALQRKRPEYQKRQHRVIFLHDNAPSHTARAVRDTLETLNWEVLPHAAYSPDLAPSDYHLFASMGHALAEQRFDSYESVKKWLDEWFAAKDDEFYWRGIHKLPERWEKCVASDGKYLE
T2 sequence (Q7JQ07 whole entry, one chain of several): as the sequence (Q7JQ07 whole entry) above

SMILES: O=C(O)C(Cc1ccccc1)N1C(=O)C(=CC=Cc2ccccc2)SC1=S (stereo not drawn) [Compound 10, reference compound]
- IC50 [1]: 35 µM
- Transposition frequencies [2]: 2.76 × 10^−6
- Inhibition factors [2]: 145
- Assembly of complexes (MOS1-ITR complexes; 400 μM compound): −
- MOS1-ITR complexes in the presence of compound (MOS1-ITR complexes; 400 μM compound): completely destabilized

SMILES: CCOC(=O)C(Cc1ccccc1)N1C(=O)C(c2ccc(C(=O)O)o2)=C(c2ccc(C(=O)O)o2)C1=O (stereo not drawn) [Compound 3]
- Transposition frequencies [2]: 4.01 × 10^−6
- Inhibition factors [2]: 100
- Assembly of complexes (MOS1-ITR complexes; 400 μM compound): −
- MOS1-ITR complexes in the presence of compound (MOS1-ITR complexes; 400 μM compound): completely destabilized
- IC50 (MOS1-ITR complexes): 30 µM

SMILES: O=C(Nc1ccccc1C(=O)O)c1cccc(NC(=O)C(c2ccccc2)c2ccccc2)c1 [Compound 9, reference compound]
- IC50 [1]: 150 µM
- excision of the transposon ([1]; highest concentration of the drug (1 mM)): completely suppressed
- Transposition frequencies [2]: 1.64 × 10^−5
- Inhibition factors [2]: 25
- inhibition of MOS1-ITR complexes (MOS1-ITR complexes; 400 μM compound): 90%

SMILES: O=C(O)c1ccc(C2=C(c3ccc(C(=O)O)o3)C(=O)N(c3ccc(O)cc3)C2=O)o1 [Compound 2]
- Transposition frequencies [2]: 1.2 × 10^−6
- Inhibition factors [2]: 33
- Assembly of complexes (MOS1-ITR complexes; 400 μM compound): −
- MOS1-ITR complexes in the presence of compound (MOS1-ITR complexes; 400 μM compound): completely destabilized
- IC50 (MOS1-ITR complexes): 15 µM

SMILES: O=C/C=C/c1ccc(C2=C(c3ccc(/C=C/C=O)o3)C(=O)N(Cc3ccccc3)C2=O)o1 [Compound 4]
- times more active against strand transfer activity than 3′ maturation (HIV-1 integrase): 10 times
- IC50 (HIV-1 integrase; read-out: IC50 3′ maturation): 70 µM
- IC50 (HIV-1 integrase; read-out: IC50 strand transfer activity): 7 µM
- Transposition frequencies [2]: 5.37 × 10^−6
- Inhibition factors [2]: 75
- Assembly of complexes (MOS1-ITR complexes; 400 μM compound): −
- MOS1-ITR complexes in the presence of compound (MOS1-ITR complexes; 400 μM compound): completely destabilized
- IC50 (MOS1-ITR complexes): 12 µM

SMILES: COc1ccc(C(c2c(O)c3ccccc3oc2=O)c2c(O)c3ccccc3oc2=O)cc1CSc1ccccn1 [Compound 7, reference compound]
- Transposition frequencies [2]: 4.85 × 10^−6
- Inhibition factors [2]: 82.5
- Assembly of complexes (MOS1-ITR complexes; 400 μM compound): −
- MOS1-ITR complexes in the presence of compound (MOS1-ITR complexes; 400 μM compound): completely destabilized

SMILES: COc1cccc(OCCOc2cccc(CC3SC(=S)NC3=O)c2)c1 (stereo not drawn) [Compound 8, reference compound]
- Transposition frequencies [2]: 5.04 × 10^−6
- Inhibition factors [2]: 79
- Assembly of complexes (MOS1-ITR complexes; 400 μM compound): −
- MOS1-ITR complexes in the presence of compound (MOS1-ITR complexes; 400 μM compound): completely destabilized
